Columns and labels:
[1] = system: LNCaP human prostate cell line; experiment: Soft agar growth assay, LNCaP; assay type: cell-based; settings: de novo expression of ETS2 in weakly tumorigenic LNCaP
Method: (§1) Transfection of LNCaP was performed in 35-mm wells using 2 μg of DNA and Superfact Reagent (Qiagen, Calif.). Selection for stable LNCaP transfectants was in 450 μg/ml G418. DU145 and PC3 cells were transfected using LipofectAmine ([…]/35 mm well, Life Technologies Inc., Bethesda, Md.). Stable DU145 and PC3 transfectants were expanded in the presence of 300 μg/ml G418.
(§2) Soft agar growth assays were performed in six-well plates (35-mm wells). Cells (20,000) were plated in 0.4% agar (Sigma) in RPMI 1640 supplemented with 10% FBS. An underlayer of 0.8% agar was used to prevent attachment of cells. Triplicate assays initiated with 20,000 cells were fed weekly by agar overlay and scored after 3 weeks. The soft agar assays were performed twice, independently.

[2] = system: DU145 cells; experiment: Soft agar growth assay (anchorage independent growth), DU145; assay type: cell-based, human; settings: DN-ETS2 transfectants vs DU145 parental cell line, after three weeks
Method: as §1, §2

Molecule: ETS2: wild type human ETS2 transcription factor, expressed de novo in LNCaP from ETS2 cDNA in sense orientation
- ability to grow in soft agar [1]: increases its ability to grow in soft agar

B1: DN-ETS2: dominant negative truncated human ETS2 protein, DNA binding domain (C-terminal amino acids 334-469), expressed from plasmid pDN-ETS2 (protein, UniProt P15036 334-469, looked up, fragment)
chain: YIQERSDPVEQGKPVIPAAVLAGFTGSGPIQLWQFLLELLSDKSCQSFISWTGDGWEFKLADPDEVARRWGKRKNKPKMNYEKLSRGLRYYYDKNIIHKTSGKRYVYRFVCDLQNLLGFTPEELHAILGVQPDTED
- anchorage-independent growth in soft agar [2]: do not grow well in soft agar
